According to patent publication US20230123334A1, “AMINO LIPID COMPOUND, PREPARATION METHOD THEREFOR, AND APPLICATION THEREOF” (SHENZHEN SHENXIN BIOTECHNOLOGY CO., LTD., priority 2020, published 2023):

System: HEK293 cells
Test: Preliminary screening as DNA vectors, GFP transfection of HEK293 cells
Assay type: cell-based
Conditions: amino lipid/DOPE liposome with 75 ng plasmid DNA (psin-EGFP-IRES-Puro); number of GFP-expressing cells divided by total nuclei (Hoechst)
Procedure, shortened: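 HEK293 cells in DMEM/10% FBS transfected with 75 ng EGFP plasmid per well complexed with amino lipid/DOPE liposomes in pH 5.6 sodium acetate. Hoechst nuclear stain added 20-24 h post-transfection, then cells cultured another 20-24 h. Confocal imaging gives GFP-positive cells as % of total nuclei.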

In order of falling “Absolute DNA transfection efficiency in HEK293 cells” value:
1. CCCCCCCCCCCSc1nc(NCCCCCCCCC)nc(NCCCN(C)C)n1 [S11N9 D6]  40.1%
2. CCCCCCCCCCCSc1nc(NCCCCCCCCC)nc(NCC2CCN(C)CC2)n1 [S11N9 D10]  32.5%
3. CCCCCCCCCCCCCCCCCCNc1nc(NCCN2CCCC2)nc(SCCCCCCCCCCC)n1 [S11N18 D3]  32.1%
4. CCCCCCCCCCCCCCCNc1nc(NCCN2CCCC2)nc(SCCCCCCCCCCC)n1 [S11N15 D3]  24.5%
5. CCCCCCCCCCCNc1nc(NCCN2CCCC2)nc(SCCCCCCCCCCC)n1 [S11N11 D3]  23.4%
6. CCCCCCCCCCCSc1nc(NCCCCCCCCC)nc(NCCN2CCCC2)n1 [S11N9 D3]  23.1%
7. CCCCCCCCCCCNc1nc(NCCCN(C)C)nc(SCCCCCCCCCCC)n1 [S11N11 D6]  22.8%
8. CCCCCCCCCCCCNc1nc(NCCN2CCCC2)nc(SCCCCCCCCCCC)n1 [S11N12 D3]  22.8%
9. CCCCCCCCCCCSc1nc(NCCCCCCCCC)nc(NCCCN2CCN(C)CC2)n1 [S11N9 D9]  22.4%
10. CCCCCCCCCCCCCCCCCCNc1nc(NCCCN(C)C)nc(SCCCCCCCCCCC)n1 [S11N18 D6]  21.7%
11. CCCCCCCCCCCSc1nc(NCCCCCCCCC)nc(NCCN2CCN(C)CC2)n1 [S11N9 D5]  20.5%
12. CCCCCCCCCCCCNc1nc(NCCCN(C)C)nc(SCCCCCCCCCCC)n1 [S11N12 D6]  18.8%
13. CCCCCCCCCCCNc1nc(NCCN(C)C)nc(SCCCCCCCCCCC)n1 [S11N11 D1]  17.8%
14. CCCCCCCCCCCCCNc1nc(NCCN2CCCC2)nc(SCCCCCCCCCCC)n1 [S11N13 D3]  17.5%
15. CCCCCCCCCCCCNc1nc(NCCN(C)C)nc(SCCCCCCCCCCC)n1 [S11N12 D1]  16.2%
16. CCCCCCCCCCCCNc1nc(NCCN2CCN(C)CC2)nc(SCCCCCCCCCCC)n1 [S11N12 D5]  14.1%
17. CCCCCCCCCCCCCCCCNc1nc(NCCN2CCCC2)nc(SCCCCCCCCCCC)n1 [S11N16 D3]  13.8%
18. CCCCCCCCCCCCCCCCCCNc1nc(NCCN(C)C)nc(SCCCCCCCCCCC)n1 [S11N18 D1]  13.8%
19. CCCCCCCCCCCSc1nc(NCCCCCCCCC)nc(NCCN2CCOCC2)n1 [S11N9 D2]  13.6%
20. CCCCCCCCCCCCCNc1nc(NCCCN(C)C)nc(SCCCCCCCCCCC)n1 [S11N13 D6]  13.6%
21. CCCCCCCCCCCCCCCNc1nc(NCCN(C)C)nc(SCCCCCCCCCCC)n1 [S11N15 D1]  12.5%
22. CCCCCCCCCCCSc1nc(NCCCCCCCCC)nc(NCCN(C)C)n1 [S11N9 D1]  12.1%
23. CCCCCCCCCCCCCNc1nc(NCCN(C)C)nc(SCCCCCCCCCCC)n1 [S11N13 D1]  10.6%
24. CCCCCCCCCCCNc1nc(NCCN2CCN(C)CC2)nc(SCCCCCCCCCCC)n1 [S11N11 D5]  10.1%
25. CCCCCCCCCCCCCCCNc1nc(NCCN2CCN(C)CC2)nc(SCCCCCCCCCCC)n1 [S11N15 D5]  9.9%
26. CCCCCCCCCCCCNc1nc(NCCN(CC)CC)nc(SCCCCCCCCCCC)n1 [S11N12 D7]  9.8%
27. CCCCCCCCCCCCCCCCCCNc1nc(NCCN2CCN(C)CC2)nc(SCCCCCCCCCCC)n1 [S11N18 D5]  9.3%
28. CCCCCCCCCCCCCCCCCCNc1nc(NCCCN2CCN(C)CC2)nc(SCCCCCCCCCCC)n1 [S11N18 D9]  9.3%
29. CCCCCCCCCCCCCCCNc1nc(NCCN2CCCCC2)nc(SCCCCCCCCCCC)n1 [S11N15 D4]  9.0%
30. CCCCCCCCCCCSc1nc(NCCCCCCCCC)nc(NCCCN2CCOCC2)n1 [S11N9 D8]  8.6%
31. CCCCCCCCCCCCCNc1nc(NCCN2CCN(C)CC2)nc(SCCCCCCCCCCC)n1 [S11N13 D5]  8.4%
32. CCCCCCCCCCCCCCCNc1nc(NCCCN(C)C)nc(SCCCCCCCCCCC)n1 [S11N15 D6]  8.2%
33. CCCCCCCCCCCCCCCCNc1nc(NCCN(C)C)nc(SCCCCCCCCCCC)n1 [S11N16 D1]  8.2%
34. CCCCCCCCCCCCCCCNc1nc(NCCCN2CCN(C)CC2)nc(SCCCCCCCCCCC)n1 [S11N15 D9]  7.0%
35. CCCCCCCCCCCCCCCNc1nc(NCC2CCN(C)CC2)nc(SCCCCCCCCCCC)n1 [S11N15 D10]  7.0%
36. CCCCCCCCCCCNc1nc(NCCN(CC)CC)nc(SCCCCCCCCCCC)n1 [S11N11 D7]  6.8%
37. CCCCCCCCCCCCCCCCNc1nc(NCCN2CCN(C)CC2)nc(SCCCCCCCCCCC)n1 [S11N16 D5]  6.8%
38. CCCCCCCCCCCCCCCCNc1nc(NCCCN2CCN(C)CC2)nc(SCCCCCCCCCCC)n1 [S11N16 D9]  6.6%
39. CCCCCCCCCCCNc1nc(NCCN2CCOCC2)nc(SCCCCCCCCCCC)n1 [S11N11 D2]  6.3%
40. CCCCCCCCCCCCNc1nc(NCCCN2CCN(C)CC2)nc(SCCCCCCCCCCC)n1 [S11N12 D9]  5.9%
41. CCCCCCCCCCCCCCCCNc1nc(NCCCN(C)C)nc(SCCCCCCCCCCC)n1 [S11N16 D6]  5.7%
42. CCCCCCCCCCCCCCCCCCNc1nc(NCC2CCN(C)CC2)nc(SCCCCCCCCCCC)n1 [S11N18 D10]  5.7%
43. CCCCCCCCCCCNc1nc(NCC2CCN(C)CC2)nc(SCCCCCCCCCCC)n1 [S11N11 D10]  5.6%
44. CCCCCCCCCCCCCNc1nc(NCCN2CCOCC2)nc(SCCCCCCCCCCC)n1 [S11N13 D2]  5.5%
45. CCCCCCCCCCCCCCCNc1nc(NCCN(CC)CC)nc(SCCCCCCCCCCC)n1 [S11N15 D7]  5.2%
46. CCCCCCCCCCCNc1nc(NCCCN2CCN(C)CC2)nc(SCCCCCCCCCCC)n1 [S11N11 D9]  4.9%
47. CCCCCCCCCCCCCNc1nc(NCCCN2CCN(C)CC2)nc(SCCCCCCCCCCC)n1 [S11N13 D9]  4.9%
48. CCCCCCCCCCCCNc1nc(NCC2CCN(C)CC2)nc(SCCCCCCCCCCC)n1 [S11N12 D10]  4.7%
49. CCCCCCCCCCCCCCCCNc1nc(NCCN2CCCCC2)nc(SCCCCCCCCCCC)n1 [S11N16 D4]  4.4%
50. CCCCCCCCCCCCCCCCCCNc1nc(NCCN2CCCCC2)nc(SCCCCCCCCCCC)n1 [S11N18 D4]  4.4%
51. CCCCCCCCCCCCCCCCCCNc1nc(NCCCN2CCOCC2)nc(SCCCCCCCCCCC)n1 [S11N18 D8]  4.4%
52. CCCCCCCCCCCCCCCCNc1nc(NCC2CCN(C)CC2)nc(SCCCCCCCCCCC)n1 [S11N16 D10]  3.9%
53. CCCCCCCCCCCCCNc1nc(NCC2CCN(C)CC2)nc(SCCCCCCCCCCC)n1 [S11N13 D10]  3.8%
54. CCCCCCCCCCCCCNc1nc(NCCN2CCCCC2)nc(SCCCCCCCCCCC)n1 [S11N13 D4]  3.5%
55. CCCCCCCCCCCCCCCCNc1nc(NCCN2CCOCC2)nc(SCCCCCCCCCCC)n1 [S11N16 D2]  3.5%
56. CCCCCCCCCCCCNc1nc(NCCN2CCCCC2)nc(SCCCCCCCCCCC)n1 [S11N12 D4]  3.4%
57. CCCCCCCCCCCCCCCCCCNc1nc(NCCN(CC)CC)nc(SCCCCCCCCCCC)n1 [S11N18 D7]  3.4%
58. CCCCCCCCCCCCNc1nc(NCCN2CCOCC2)nc(SCCCCCCCCCCC)n1 [S11N12 D2]  3.1%
59. CCCCCCCCCCCCCNc1nc(NCCN(CC)CC)nc(SCCCCCCCCCCC)n1 [S11N13 D7]  2.8%
60. CCCCCCCCCCCCCCCCCCNc1nc(NCCN2CCOCC2)nc(SCCCCCCCCCCC)n1 [S11N18 D2]  2.8%
61. CCCCCCCCCCCNc1nc(NCCCN2CCOCC2)nc(SCCCCCCCCCCC)n1 [S11N11 D8]  2.5%
62. CCCCCCCCCCCSc1nc(NCCCCCCCCC)nc(NCCN(CC)CC)n1 [S11N9 D7]  2.0%
63. CCCCCCCCCCCCCCCCNc1nc(NCCN(CC)CC)nc(SCCCCCCCCCCC)n1 [S11N16 D7]  1.7%
64. CCCCCCCCCCCCNc1nc(NCCCN2CCOCC2)nc(SCCCCCCCCCCC)n1 [S11N12 D8]  1.5%
65. CCCCCCCCCCCCCCCNc1nc(NCCN2CCOCC2)nc(SCCCCCCCCCCC)n1 [S11N15 D2]  1.3%
66. CCCCCCCCCCCSc1nc(NCCCCCCCCC)nc(NCCN2CCCCC2)n1 [S11N9 D4]  1.1%
67. CCCCCCCCCCCNc1nc(NCCN2CCCCC2)nc(SCCCCCCCCCCC)n1 [S11N11 D4]  1.0%
68. CCCCCCCCCCCCCNc1nc(NCCCN2CCOCC2)nc(SCCCCCCCCCCC)n1 [S11N13 D8]  0.9%
69. CCCCCCCCCCCCCCCCNc1nc(NCCCN2CCOCC2)nc(SCCCCCCCCCCC)n1 [S11N16 D8]  0.4%
70. CCCCCCCCCCCCCCCNc1nc(NCCCN2CCOCC2)nc(SCCCCCCCCCCC)n1 [S11N15 D8]  0.1%
71. CCCCCCCCCCCCN(CCCCCCCCCCCC)c1nc(NCCN(C)C)nc(SCCCCCCCCCCC)n1 [S11^2N12 D1]  0.0%
